One assay relates to BY4743 yeast cells. Format: cell-based.
For assay [1], the system named is mitochondrial membrane potential (ψmito) in BY4743 yeast cells. In kind it is cell-based.
The subject of the next assay is yeast cells. Particulars: cited from earlier work.
Another assay relates to Arabidopsis seedlings. Set-up: species or system Arabidopsis thaliana. The settings on record: in vivo.

pIC50: −log10 of the molar value. Entries after “also recorded” stand apart in the source; their conditions may differ.

The text below walks through data of patent US9428758B2 (priority 2011, dated 2016).

For the molecule `COc1ccc(C[C@H]2NC[C@H](O)[C@H]2OC(C)=O)cc1` [anisomycin], in the assay with BY4743 yeast cells, the “shift in growth sensitivity relative to cells carrying the vector alone” value is on record as “no significant shift in growth sensitivity”.
`C/C=C\C(=O)O[C@@H]1C[C@H]2O[C@@H]3C=C(C)C(=O)C[C@]3(C)[C@]1(C)[C@]21CO1` [Tcin, trichothecin]: the “change of ψmito with increasing concentrations of Tcin” value in assay [1] is listed as “did not change much”. Moreover, the negative logarithm of the IC50 (pIC50) (as a rule, the negative decadic logarithm of the IC50, by convention in mol/L) with yeast cells is 5.60. Further, the “effect on root growth of the wild type” value in the assay with Arabidopsis seedlings is “severely limited root growth; also recorded: severely restricts root initiation and elongation”. For the same molecule, in the assay on BY4743 yeast cells, the “growth against Tcin” value is recorded as “increasingly resistant to Tcin”, the “growth against Tcin relative to cells carrying the vector alone” value is recorded as “more sensitive to Tcin” and the “growth against Tcin relative to cells containing the vector alone” value is listed as “provided resistance”.
Consider `C[C@@H]1C[C@@H]([C@H](O)CC2CC(=O)NC(=O)C2)C(=O)[C@@H](C)C1` [cycloheximide], for which the “shift in growth sensitivity relative to cells carrying the vector alone” value in the assay on BY4743 yeast cells is recorded as “no significant shift in growth sensitivity”.
The same measure, in the same setting: to `O=C(N[C@H](CO)[C@H](O)c1ccc([N+](=O)[O-])cc1)C(Cl)Cl` [chloramphenicol] belongs “no significant shift in growth sensitivity”.
